The numbers were not newly measured in patent publication US5389382A, “Hydrosols of pharmacologically active agents and their pharmaceutical compositions comprising them” (Sandoz Ltd., priority 1986, dated 1995), which cites them from elsewhere.

The structures appear in SMILES notation.

The conditions of this series: at room temperature.

As to `Cc1ccc2c(-c3ccccc3)nc(=O)n(C(C)C)c2c1` [Proquazone, 1-isopropyl-7-methyl-4-phenyl-2(1H)-quinazolone], the water solubility result was “below 0.1 g/100 ml”.
